# Experimental data published in a melting point compilation (Tetko et al.; mined from patent text by program, amines drawn as free bases though some values may be those of a salt).
row,SMILES,melting point [°C]
1,C=CCOc1cc(OC)ccc1C(=O)c1ccccc1,40
2,CCCc1c(C(=O)CCl)c2ccc(C(=O)OC)cc2n1Cc1ccccc1Cl,143 to 145
3,OC1(c2ccc(F)c(F)c2)CCC2(CC1)OCCO2,118 to 120
4,N#Cc1c2ccccc2c(-c2ccc(O)cc2)c2c1sc1ccccc12,307 to 309
5,CCCC12CCC(=O)C=C1c1c(cc(OCC(=O)O)c(Cl)c1Cl)CC2 (stereo not drawn),193 to 194
6,O=C(CCC(=O)c1ccccc1)NC1CNCCO1 (stereo not drawn),87 to 89
7,O=C(NCc1cccnc1)c1ccc2n1Cc1ccccc1N(C(=O)c1ccc(-c3ccccc3CO)cc1)C2,119 to 121
8,O=C(O)CC1(CC(O)=NO)CCCCCC1,90 to 100
9,O=C(NC[C@H]1CN(c2ccc(N3CCCC3=O)cc2)C(=O)O1)c1ccc(Cl)s1,229
10,Cc1ccc(C(C)(CCCCC(=O)CCCCC(C)(C(=O)O)c2ccc(C)cc2)C(=O)O)cc1 (stereo not drawn),48 to 50
11,COc1cccc(C(=O)NN=C2C(=O)Nc3ccc(I)cc32)c1,287
12,CC(C)(Nc1cc(Cl)ccc1[N+](=O)[O-])C(=O)O,146 to 147
13,Nc1ncnc2c1ncn2OCC(O)CCP(=O)(O)O (stereo not drawn),265 to 267
14,O=C(O)C(=O)CC(=O)c1cccn1Cc1ccc(Cl)cc1,182 to 184
15,Cn1nc(-c2ncc(Cl)cc2F)c(C=O)c1OC(F)F,111 to 116
16,COc1ccc(C2C3=C(COC3=O)Nc3ccc4cn[nH]c4c32)cc1[N+](=O)[O-] (stereo not drawn),217 to 218
17,CCc1cc2c(s1)-n1nnnc1CN=C2c1ccccc1Cl,135 to 136
18,O=C(Cn1c(-c2ccc(Cl)cc2)nc2cccnc21)Nc1ccccc1,240 to 242
19,Cc1ccc(C(=O)C2=C(N)CCCC2)cc1,130 to 131
20,O=C(Nc1ccccc1Oc1ccc(Cl)cc1)C1CCNCC1,138 to 140
21,CCN(CC)c1ccc(C2(c3ccc(N(C)C)cc3N(C)C)OC(=O)c3c(Cl)c(Cl)c(Cl)c(Cl)c32)c(C)c1 (stereo not drawn),236 to 238
22,Cc1cccc(COc2ccc(CC(NC(=O)c3cn4ccc(-c5ccc(Cl)cc5)cc4n3)C(=O)O)cc2)c1 (stereo not drawn),245 to 246
23,O=S(=O)(Cl)C=Cc1ccc(C2CCCCC2)c(Br)c1,93 to 97
24,O=S(=O)(CCc1ccc(Cl)cc1)CCc1ccc(Cl)cc1,42 to 43

row,SMILES,melting point [°C]
1,C=CCOCC(CC)(COCC=C)C(NC(=O)c1ccc(Cl)cc1)NC(=N[N+](=O)[O-])Nc1cccnc1 (stereo not drawn),175 to 180
2,COC1C=C(C)C(=O)CC(C)(C)C1OC(=O)c1ccc([N+](=O)[O-])cc1[N+](=O)[O-] (stereo not drawn),148 to 149
3,COc1cc(CN2CCN(C[C@@H](C)O)CC2)ccc1-c1nc2c(N[C@H]3[C@@H](C(N)=O)[C@@H]4C=C[C@H]3C4)c(Cl)cnc2[nH]1,157 to 159
4,FC(F)(F)c1cc(Cl)c(-n2cnc(I)n2)c(Cl)c1,130 to 132
5,CC(=O)NC1Cc2ccc(NC(=O)c3ccccc3Br)cc2C1 (stereo not drawn),216 to 217
6,CS(=O)(=O)Nc1ccc([N+](=O)[O-])cc1C(=O)c1ccc(F)cc1F,172 to 178
7,CN(C)C(=S)Oc1ccc(Br)cc1C=O,141 to 143
8,CCOC(=O)COc1cc(C=O)ccc1OCc1ccccc1,36 to 43
9,Nc1cc(Cl)c(NCCO)cc1[N+](=O)[O-],130 to 131
10,CN1CCN(C)c2cccc(Nc3ncc(Cl)c(N[C@@H]4CCCC[C@H]4NS(C)(=O)=O)n3)c2C1=O,160
11,c1ccc2c(c1)c1ccccc1n2C1CCCCO1 (stereo not drawn),131 to 133
12,COc1ccc(-c2cc(OCC3CO3)c3ccccc3n2)cc1 (racemic),100 to 106
13,COC(=O)CCC1OC(=O)N=C1c1ccccc1 (stereo not drawn),104 to 105
14,Brc1ccc(OC2CCN(CCc3c[nH]c4ccccc34)CC2)cc1,132 to 134
15,COC(=O)C(NC(C)=O)C(=O)OCCCl (stereo not drawn),81 to 82
16,O=C(OC(Cn1ccnc1)c1ccc2ccccc2c1)c1ccccc1 (stereo not drawn),219 to 220
17,N#Cc1nn(-c2c(Cl)cc(C(F)(F)F)cc2Cl)c(N)c1-c1ccc(F)cc1,222 to 223
18,COc1ccc(C(=O)Nc2ccccc2)cc1NC(=S)Nc1cc(C)cc(C)c1,203 to 205
19,CC(=O)OCCc1ccc(NC(=O)CCCCl)cc1,83
20,O=C(Nc1ccc(F)cc1)c1cn2nc(N3CCN(C(=O)c4ccccc4C(F)(F)F)CC3)ccc2n1,115 to 117
21,O=C(CCl)CC(=O)Nc1ccccc1,142 to 143
22,O=C1c2cc(Oc3ccc(F)cc3)ccc2CN1Cc1cccnc1,115 to 116
23,CSc1nccn1N=Cc1cc(C(C)(C)C)c(O)c(C(C)(C)C)c1,181 to 183
24,Cn1nc(-c2ccccc2)c(Oc2ccc(N)cc2)c1-c1ccccc1,167 to 169

row,SMILES,melting point [°C]
1,C=CC[C@H]1CCC[C@H](N2C(=O)c3ccccc3C2=O)C(=O)N1CC(=O)OC,107 to 109
2,COC(=O)Oc1ccc(C(=O)CBr)c(OC(=O)OC)c1,73 to 74
3,ClCc1conc1-c1ccc(-c2ccccc2)cc1,102 to 103
4,CC(C)(C)OC(=O)N1CCC(c2nc3cc(-c4ccc(C#N)c(F)c4)ccc3o2)CC1,138 to 142
5,CC(C)(C)n1cc(-c2ccc(S(=O)c3ccccc3)cc2)c2c(N)ncnc21 (stereo not drawn),180 to 182
6,Cc1cc(O)c(S(=O)(=O)Cc2ccc(F)cc2)c(=O)o1,180 to 182
7,CCC(=O)c1cn(-c2c(Cl)cc(C(F)(F)F)cc2Cl)nc1C#N,143
8,CC(C)C(NC(=O)OC(C)(C)C)C(=O)OCN1C(=O)CCC(N2C(=O)c3ccccc3C2=O)C1=O (stereo not drawn),82 to 85
9,CCCc1nc(N)c(C#N)[nH]1,117 to 119
10,Cn1c(=O)[nH]c2ccsc2c1=O,260 to 262
11,O=C(O)C1=Cc2cc(-c3ccc(Cl)cc3)ccc2OC1C(F)(F)F (stereo not drawn),212 to 213
12,BrCc1ccccc1-c1cc(-c2ccccc2)on1,68 to 72
13,Cc1cc2c(c3c1NC(=O)CC3)O[C@@H](CN)[C@@H]2CO (racemic),> 300
14,O=C(N1CCCC1)C1(Cc2ccccc2)CCN(Cc2ccccc2)CC1,129
15,CC(=O)Oc1ccc(-c2ccc(F)cc2)cc1C(=O)O,134 to 137
16,Cc1cc(-n2cc(-c3ccc(F)cc3)nc2C)cc2ccc(=O)[nH]c12,289 to 291
17,O=C1C(=O)c2ccccc2C2=C1SCC1(CCN(CC(O)CN3CCOCC3)CC1)O2 (stereo not drawn),75 to 78
18,CC(C)(C)C(=O)NCCc1cccs1,79 to 80
19,O=C(N=CNO)c1nccc2c1[nH]c1ccccc12,235 to 240
20,C=C(Cc1ccccc1)C(O)C(NC=O)C(=O)OCC (stereo not drawn),87 to 89
21,CC(C)N1C(=O)NC2(CCN(C(=O)OC(C)(C)C)CC2)C1=O,206 to 208
22,CC(C)c1cc(OCC(=O)O)cc2c1C(=O)N(COC(=O)c1c(Cl)cccc1Cl)S2(=O)=O,136 to 137
23,CN1C2=NCCCN2C(=O)c2cc(Cl)ccc21,119 to 120
24,Cn1c(S(=O)(=O)C(F)(F)C(F)F)nc(-c2ccc(F)cc2)c1-c1ccc(F)cc1,122 to 124

# Continued, values first:
row,melting point [°C],SMILES
1,47 to 49,Cc1cccc(NC(=O)n2nc(Oc3cccc(C(F)(F)F)c3)cc2C)c1
2,73 to 74,COC(=O)CCCc1oc(Cl)nc1-c1ccc(Cl)cc1
3,76 to 78,Cc1cccc(OCCO)c1
4,236 to 237,CCOC(=O)c1cc2cc(F)cnc2n1Cc1ccncc1
5,184,Cc1ccc(-c2ncc(OC3SCC(O)C(O)C3O)cc2F)cn1 (stereo not drawn)
6,197 to 198,CCOCc1nc2c(N)nc3ccccc3c2n1CCCCS(=O)(=O)NC1CCCCC1
7,205,Cc1nn(C)cc1C(=O)Nc1cc(Oc2ccc3nc(NC(=O)C4CC4)cn3n2)ccc1F
8,146 to 148,CCCN1CC(c2ccc(S(C)(=O)=O)cc2)=C(c2ccc(Cl)cc2)C1=O
9,164 to 165,CCc1[nH]n(C2CCCC2)c2nc(-c3ccc4c(c3)CC(C)O4)nc(=O)c1-2 (stereo not drawn)
10,100 to 102,CCC(=O)NCCC1CCc2ccn3nc(C)cc3c21 (stereo not drawn)
11,216 to 218,CCNc1cccc2c(S(=O)(=O)Nc3ncc(Br)nc3OC)cccc12
12,258 to 259,Cc1c(S(=O)(=O)c2ccc(=O)[nH]n2)sc2ccc(Cl)cc12
13,98 to 100,Cc1cc(C#N)c2ccccn12
14,66 to 68,CCCCN(CCCC)C(=O)Cc1ccccc1Nc1c(Cl)cccc1Cl
15,117 to 120,CCNC(=O)c1ccc2ncc(C3CCN(C)CC3)c-2[nH]1
16,97 to 98,CCOc1cc(Cn2cc(CCC(=O)O)c(-c3ccccc3)c2)cc(OCc2csc(-c3cnccn3)n2)c1

row,melting point [°C],SMILES
1,137 to 138,Cc1nc(-c2cccc(Nc3ccc(I)cc3[N+](=O)[O-])c2)cs1
2,259 to 261,CCOC(=O)Cc1cnc(Nc2n[nH]c3ccc(-c4ncccc4Cl)cc23)s1
3,163 to 165,CCOC(=O)c1c(N2CCN(C)CC2)c2cc(Cl)ccc2n(C)c1=O
4,37 to 38,CCOC(=O)c1cc(C#N)c(C=O)nc1NC(C)CC (stereo not drawn)
5,107 to 108,CCOC(=O)Cc1cnn(CC)c1O
6,233 to 235,CC1(C)CCN(c2cccc(-c3cnc4[nH]cc(C(=O)C(C)(C)C)c4n3)c2)C1
7,89 to 90,CCCn1nnn(-c2cc(OC3CCCO3)c(Cl)cc2Cl)c1=O (stereo not drawn)
8,300 to 301,COCCn1cc2c(C3C(=O)Nc4ccc(Br)cc43)nc(NCc3cccnc3)nc2n1 (stereo not drawn)
9,210 to 213,COC(=O)c1cc(N)nc(-c2ccc(Cl)cc2F)n1
10,167 to 168,Cc1cc(NCC(O)CO)c2ccccc2n1 (stereo not drawn)
11,116,CCCCNc1nc2cc(C)nn2c2ccncc12
12,145,Clc1cnc2ccc(Br)cc2n1
13,227 to 229,CCc1cccc(N2C(c3ccc(Cl)cc3)=NS(=O)(=O)c3cnccc32)c1
14,126 to 127,CCNC(=O)c1c(OC(C)(C)C)ccc2ccccc12
15,257 to 260,Nc1cc(-c2cc(Cl)cc(Cl)c2)cc2nc(-c3ccco3)nn12
